Laboratory results as given in patent publication US20030113369A1, “Liposomes with enhanced circulation time and method of treatment” (priority 1991, published 2003).
Entries after “also recorded” stand apart in the source; their conditions may differ. Where a name gives a salt, the structure may show the parent alone.

Legend:
C-26 colon carcinoma [1] = assay: Tumor treatment, subcutaneous colon carcinoma; assay type: in vivo, mice; conditions: for survival of the animals at 120 days following tumor implantation: 6 mg/kg on days 1, 8 and 15, seven animals per group; for tumor growth compared with the saline control: IV on days 1, 8 and 15, FIG. 15A
Method: Vesicle-forming lipids containing PEG-PE, PG, PHEPC, and cholesterol and α-TC in a mole ratio of 0.15:0.3:1.85:1:0.2 were dissolved in chloroform to a final lipid concentration of 25 μmol phospholipid/ml. The lipid mixture was dried into a thin film under reduced pressure. […] The MLV suspension was frozen in a dry ice acetone bath and thawed three times and sized to 80-100 nm by extrusion as detailed above. An ammonium ion gradient was created substantially as described in Example 10. The liposomes were loaded with epirubicin, and free (unbound drug) removed also as described in Example 10 for doxorubicin. […] Epirubicin HCl and doxorubicin HCL, the commercial products, were obtained from the hospital pharmacy.
About 10^6 cells C-26 colon carcinoma cells were injected subcutaneously into three groups of 35 mice. The groups were subdivided into five 7-animal subgroups.
Each group was followed for 28 days. Tumor size was measured for each animal on days 5, 7, 12, 14, 17, 21, 24 and 28. The growth of the tumor in each subgroup (expressed as the mean tumor size of the individual animals) at each time point is plotted in FIG. 15A.
The same number of animals were inoculated with the same number of tumor cells as described above.

[2] = system: syngeneic MC2 mouse mammary carcinoma; assay: Tumor treatment, breast carcinoma; assay type: in vivo, C3H/He mice; conditions: 6 mg/kg IV on days 1, 8 and 15; FIG. 21
Method: Ten-week-old female C3H/He mice were randomized into three groups of 20 animals and each received bilateral subcutaneous implants of 10^5˜10^6 syngeneic MC2 mouse mammary carcinoma cells on day 0. Intravenous injections of 6 mg/kg of free epirubicin, PEG liposomes with entrapped epirubicin (6 mg/kg) or a saline control were given on days 1, 8 and 15. Weights of the animals were taken on days 0, 7, 14, 22 and 24.
Results of the study are plotted in FIG. 21, where mean tumor size for the three treatment groups is as indicated, expressed as mean tumor size (in mm^3×10^−1) for all three treatment groups. […] At day 24 the statistical confidence between the liposome and free drug groups is extremely high (+=9.9, p<0.0000001 using the Student's +tests).

Maximum tolerated dose = assay: Maximum tolerated dose
Method: Solutions of free doxorubicin HCl, epirubicin HCl were obtained as above. PEG-liposome formulations containing either doxorubicin or epirubicin, at a drug concentration of 70-90 μg compound/μmole liposome lipid, were prepared as described in Example 10. Conventional liposomes (no PEG-derivatized lipid) were loaded with doxorubicin to a drug concentration of […] lipid using standard techniques.
Each of the five formulations was administered to 35 mice, at a dose between 10 and 40 mg drug/kg body weight, in 5 mg/kg increments, with five receiving each dosage.

[3] = Multidose toxicity of epirubicin: weight change and heart histology; assay type: in vivo, mice
C-26 colon carcinoma [4] = conditions: cited from earlier work
[5] = system: syngeneic mammary carcinoma cells (MC2); conditions: cited from earlier work
[6] = Survival at 120 days following a single injection
J-6456 lymphoma [7] = assay: Tissue distribution of doxorubicin, subcutaneous tumor; assay type: in vivo, mice; conditions: heart, muscle, tumor at 4, 24, 48 hours; 10 mg/kg IV
Method: That liposome delivery to the tumor is required for selective drug targeting can be seen from the study reported in Example 12. Here mice were inoculated subcutaneously with the J-6456 lymphoma which formed a solid tumor mass of about 1 cm^3 after one-two weeks. The animals were then injected either with free doxorubicin or doxorubicin loaded into PEG-liposomes at a dose of 10 mg drug per kg body weight. The tissue distribution (heart, muscle, and tumor) of the drug was then assayed at 4, 24, and 48 hours after drug administration.
Two groups of twelve mice were injected subcutaneously with 10^6 J-6456 tumor cells. After 14 days the tumors had grown to about 1 cm^3 in size in the subcutaneous space and the animals were injected IV (tail vein) with 10 mg/kg doxorubicin as free drug (group 1) or encapsulated in PEG liposomes (group 2). At 4, 24, and 48 hours after drug injection, four animal in each group were sacrificed, and sections of tumor, heart, and muscle tissue were excised. Each tissue was weighed, then homogenized and extracted for determination of doxorubicin concentration using a standard florescence assay procedure Gabizon, 1989). The total drug measured in each homogenate was expressed as μg drug per gram tissue.

J-6456 lymphoma [8] = assay: Tumor treatment, survival after IP lymphoma implantation; assay type: in vivo, mice; conditions: 10 mg/kg IV
Method: A doxorubicin HCl solution to be used as the free drug control was obtained from a hospital pharmacy. A total of 30 mice were injected IP with 10^6 J-6456 lymphoma cells. The animals were divided into three 10-animal groups, each of which was injected IV with 0.4 ml of either saline vehicle, 10 mg/kg doxorubicin solution or the doxorubicin-loaded liposomes at 10 mg/kg. Each group was followed for 100 days for number of surviving animals. The percent survivors for each treatment group is plotted in FIG. 16.

Blood biochemistry = assay type: in vivo, mice; conditions: pooled serum
Method: Blood chemistries were measured in groups of both male and female mice receiving the same dose and injection schedule of free or PEG-liposomes with entrapped epirubicin as above.

[9] = Multidose toxicity of doxorubicin: weight change and histopathology; assay type: in vivo, mice; conditions: four weekly 10 mg/kg, sacrificed day 29
Method: FIG. 20 is a plot of weight changes in normal Sabra male mice untreated (open circles) or treated with four weekly intravenous injections on days […] with a 10 mg/kg dose of either free doxorubicin (open triangles) or PEG liposomes with entrapped doxorubicin (open squares); and
Similar reduced toxicity results were obtained when free doxorubicin was compared with PEG liposomes with entrapped doxorubicin, in groups of mice receiving four weekly injections of 10 mg/kg doxorubicin on days 1, 8, 15 and 22.

C-26 colon carcinoma [10] = assay: Tumor treatment with conventional doxorubicin liposomes; assay type: in vivo, mice; conditions: 10 mg/kg on days 8, 15 and 22; FIG. 17
Method: Conventional doxorubicin liposomes (L-DOX) were prepared according to published methods (Gabizon, 1988). Briefly, a mixture of eggPG, Egg,PC, cholesterol and α-TC in a mole ratio of 0.3:1.4:1:0.2 was made in chloroform. The solvent was removed under reduced presssure and the dry lipid film hydrated with a solution of 155 mM NaCl containing 2-5 mg doxorubicin HCl. The resulting MLV preparation was down-sized by extrusion through a series of polycarbonate membranes to a final size of about 250 nm. The free (unentrapped) drug was removed by passing the suspension over a bed of Dowex resin. The final doxorubicin concentration was about […] lipid.
Three groups of 7 mice were inoculated subcutaneously with 10^5-10^6 C-26 colon carcinoma cells as detailed in Example 15. The animals were divided into three, 7-animal treatment groups, one of which receivd 0.5 ml of saline vehicle as a control. The other two groups were treated with doxorubicin either as a free drug solution or in the form of L-DOX liposomes at a dose of 10 mg/kg. The treatments were given on days 8, 15 and 22 after tumor cell inoculation. Tumor size was measured on the days treatments were given and day 28.

[11] = dog, in vivo
Method: (§1) The PEG-PE lipids were formulated with hydrogenated soy bean PC(HSPC) and cholesterol, in a mole ratio of 0.15:1.85:1 (PEG-Dox).
(§2) A doxorubicin HCl solution (the marketed product, Free Dox) was obtained from the hospital pharmacy.
(§3) Free DOX, PEG-Dox and HPI-Dox were diluted to the same concentration (1.8 mg/ml) using unbuffered 5% glucose on the day of injection. Dogs were randomized into three groups (2 females, 1 male) and weighed. An 18 gauge Venflon IV catheter was inserted in a superficial limb vein in each animal. The drug and liposome suspensions were injected by quick bolus (15 seconds). Four ml blood samples were before injection and at 5, 10, 15, 30, 45 min, 1, 2, 4, 6, 8, 10, 12, 24, 48 and 72 hours post injection. In the liposome groups blood was also drawn after 96, 120, 144, and 168 hours. Plasma was separated from the formed elements of the whole blood by centrifugation and doxorubicin concentrations assayed by standard fluorescence techniques. The amount of doxorubicin remaining in the blood was expressed as a percentage of peak concentration of labeled drug, measured immediately after injection.

[12] = Plasma kinetics of free and liposomal doxorubicin; conditions: dogs
Method: as §1, §2, §3

J-6456 lymphoma [13] = assay: Tissue distribution of doxorubicin, ascites tumor; conditions: for Plasma: 10 mg/kg doxorubicin IV; for Plasma / Ascites Tumor (tumor & fluid) / Heart / Liver: value (SD); for Ascites Tumor (tumor & fluid) / Heart / Liver: 10 mg/kg
Method: Two groups of 15 mice were injected interperitoneally with 10^6 J-6456 lymphoma cells. The tumor was allowed to grow for one-two weeks at which time 5 ml of ascites fluid had accumulated. The mice were then injected IV with 10 mg/kg doxorubicin either in free drug form (group 1) or entrapped in PEG liposomes as described in Example 11 (group 2). Ascites fluid was withdrawn from three animals in each group at 1, 4, 15, 24 and 48 hours post treatment. The ascites tumor was further fractionated into cellular and fluid components by centrifugation (15 min. 5000 rpm). Free and liposome-bound drug in the supernatant was determined by passing the fluid through a Dowex 50-WX-4 resin, as above, to remove free drug. The doxorubicin concentrations in the ascites fluid, tumor cells, supernatant, and resin-treated supernatant were then determined, and from these values, μg doxorubicin/gram tissue was calculated.
In a similar experiment two groups of twelve mice were implanted IP with the J-6456 lymphoma and the tumor was allowed to establish as described above. Once the ascites tumor had reached about 5 ml, one group of animals was injected with 10 mg/kg free doxorubicin and the other group with 10 mg/kg doxorubicin entrapped in PEG liposomes. At 4, 24 and 48 hours post treatment ascites fluid and blood samples were withdrawn from four animals in each group and the animals were sacrificed. Sections of liver and heart tissue were excised from each animal, homogenized and drug concentration assayed as described above. Plasma was separated from whole blood by centrifugation and drug concentration assayed as stated above. Doxorubicin concentration in the ascites fluid was also measured. Plasma and ascites fluid levels are expressed as pg doxorubicin per ml and liver and heart tissue values as pg doxorubicin per gram tissue. The standard deviations for each measurement is shown in parentheses.

SMILES: COc1cccc2c1C(=O)c1c(O)c3c(c(O)c1C2=O)C[C@@](O)(C(=O)CO)C[C@@H]3O[C@H]1C[C@H](N)[C@@H](O)[C@H](C)O1 [EPI, Epirubicin HCl]
- survival of the animals at 120 days following tumor implantation (C-26 colon carcinoma [1]): none
- tumor growth compared with the saline control (C-26 colon carcinoma [1]): neither free doxorubicin nor free epirubicin at 6 mg/kg significantly suppressed tumor growth
- tumor response, delayed treatment (C-26 colon carcinoma [1]; days 3, 10, 17 or days 10, 17, 24, 6 mg/kg (liposomes also 9 mg/kg), FIGS. 15B, 15C, 18, listed as free epirubicin, HCl): only a modest retardation in the rate of tumor growth; also recorded: no tumor regression was seen
- tumor growth [2]: the tumor grows quickly
- MTD at 14 days (Maximum tolerated dose; mouse, in vivo): 10 mg/kg
- weight change ([3]; three weekly injections from day 3, 26-day period, C-26 tumor-bearing mice, FIG. 19): lost weight rapidly starting about day 10
- histological examination of heart muscle tissue ([3]; three weekly injections, 6 mg/kg free, 6 or 9 mg/kg liposomal): significant cardiomyopathy was observed
- in vitro activity against C-26 colon carcinoma (C-26 colon carcinoma [4]): show in vitro activity against this tumor
- in vitro sensitivity of MC2 cells [5]: sensitive in vitro
- Surviving mice at 120 days ([6]; 3 mg/kg): 5/5
- Surviving mice at 120 days ([6]; 6 mg/kg): 5/5
- Surviving mice at 120 days ([6]; 9 mg/kg): 2/5
- Surviving mice at 120 days ([6]; 12 mg/kg): 0/5
- Surviving mice at 120 days ([6]; 15 mg/kg): 0/5
- dose at which 2/5 animals died ([6]; 120 days): 9 mg/kg

SMILES: COc1cccc2c1C(=O)c1c(O)c3c(c(O)c1C2=O)C[C@@](O)(C(=O)CO)C[C@@H]3O[C@H]1C[C@H](N)[C@H](O)[C@H](C)O1.Cl [Free DOX, Doxorubicin HCl]
- selective drug accumulation in the tumor (J-6456 lymphoma [7]): No selective drug accumulation into the tumor occurred
- survival of the animals at 120 days following tumor implantation (C-26 colon carcinoma [1]): none
- tumor growth compared with the saline control (C-26 colon carcinoma [1]): neither free doxorubicin nor free epirubicin at 6 mg/kg significantly suppressed tumor growth
- survival relative to the saline group (J-6456 lymphoma [8]): little improvement in survival over the saline group
- Maximum Tolerated Dose (Maximum tolerated dose; in mice, highest dose without death or dramatic weight loss within 14 days): 10 to 12 mg/kg
- Albumin (Blood biochemistry; females): 31 g/1
- Alk. Phos. (Blood biochemistry; females): 162 μ/1
- Calcium (Blood biochemistry; females): 2.9 mmol/1
- Chloride (Blood biochemistry; females): 118 mmol/1
- Cholesterol (Blood biochemistry; females): 4.7 mmol/1
- Creatinine (Blood biochemistry; females): 123 μmol/1
- Glucose (Blood biochemistry; females): 2.9 mmol/1
- Phosphorus (Blood biochemistry; females): 3.4 mmol/1
- Sodium (Blood biochemistry; females): 154 mmol/1
- Total protein (Blood biochemistry; females): 57 g/1
- Urea (Blood biochemistry; females): 12.5 mmol/1
- Uric acid (Blood biochemistry; females): 350 μmol/1
- Albumin (Blood biochemistry; males): 21 g/1
- Alk. Phos. (Blood biochemistry; males): 129 μ/1
- Bilirubin (Blood biochemistry; males): 0 μmol/1
- Calcium (Blood biochemistry; males): 1.6 mmol/1
- Chloride (Blood biochemistry; males): 117 mmol/1
- Cholesterol (Blood biochemistry; males): 6.0 mmol/1
- Creatinine (Blood biochemistry; males): 37 μmol/1
- Glucose (Blood biochemistry; males): 1.3 mmol/1
- Phosphorus (Blood biochemistry; males): 5.2 mmol/1
- Sodium (Blood biochemistry; males): 150 mmol/1
- Total protein (Blood biochemistry; males): 39 g/1
- Urea (Blood biochemistry; males): 12.4 mmol/1
- Uric acid (Blood biochemistry; males): 333 μmol/1
- histopathology, gonads [9]: lack of follicular maturation and of spermatogenesis
- histopathology, heart [9]: mild to moderate myolysis was seen in all (13) mice
- histopathology, kidney [9]: advanced signs of nephrosis
- histopathology, lungs, adrenals, small bowel, pancreas, urinary bladder [9]: No damage was observed
- histopathology, spleen [9]: reversible atrophy of the red and white pulp
- histopathology, liver ([9]; listed as free doxorubicin, HCl): hematopoiesis foci were present in both groups; also recorded: microcytosis was also observed
- tumor growth (C-26 colon carcinoma [10]): suppressed tumor growth to a modest extent compared with the saline control
- AUC [11]: 7.1 to 10.0 mg/L
- clearance [11]: 10 to 15 mL/min
- Kinetic Pattern ([11]; iv): Bi-exp.
- Peak Conc. ([11]; iv): 0.4 to 2.2 mg/L
- in vitro activity against C-26 colon carcinoma (C-26 colon carcinoma [4]): show in vitro activity against this tumor
- in vitro sensitivity of MC2 cells [5]: sensitive in vitro
- t1/2 [12]: 1.9 to 3.3 h
- Tumor/Heart (J-6456 lymphoma [13]; 4 hours): 0.0052
- Plasma (J-6456 lymphoma [13]; 4 hours): 0.9 (0.0) μg/ml
- Ascites Tumor (tumor & fluid) (J-6456 lymphoma [13]; 4 hours): 0.3 (0.1) μg/ml
- Heart (J-6456 lymphoma [13]; 4 hours): 5.7 (3.4) μg/gram
- Liver (J-6456 lymphoma [13]; 4 hours): 8.1 (1.4) μg/gram
- Tumor/Heart (J-6456 lymphoma [13]; 24 hours): 0.04
- Plasma (J-6456 lymphoma [13]; 24 hours): 0.0 µg/mL
- Ascites Tumor (tumor & fluid) (J-6456 lymphoma [13]; 24 hours): 0.1 (0.1) μg/ml
- Heart (J-6456 lymphoma [13]; 24 hours): 2.5 (0.3) μg/gram
- Liver (J-6456 lymphoma [13]; 24 hours): 6.2 (4.8) μg/gram
- Tumor/Heart (J-6456 lymphoma [13]; 48 hours): 0.266
- Plasma (J-6456 lymphoma [13]; 48 hours): 0.0 µg/mL
- Ascites Tumor (tumor & fluid) (J-6456 lymphoma [13]; 48 hours): 0.4 (0.3) μg/ml
- Heart (J-6456 lymphoma [13]; 48 hours): 1.5 (0.6) μg/gram
- Liver (J-6456 lymphoma [13]; 48 hours): 6.1 (3.6) μg/gram
